In ChEMBL document CHEMBL5380779, “Small Molecules Targeting the RNA-Binding Protein HuR Inhibit Tumor Growth in Xenografts” (J Med Chem, 2023):
Activity calls are given as the source filed them. The calls are words filed in the database; no cut-off is given here.

Key:
MDA-MB-231 [1] = assay: Cytotoxicity against human MDA-MB-231 cells assessed as inhibition of cell growth by MTT assay; assay type: functional, cell-based
[2] = Inhibition of full-length HuR-ARE fluorescein-labeled Msi1 mRNA binding (unknown origin) incubated for 2 hrs by fluorescence polarization assay; design: species or system Homo sapiens
[3] = Inhibition of HuR-ARE fluorescein-labeled Msi1 mRNA binding (unknown origin) by fluorescence polarization assay; design: species or system Homo sapiens
MDA-MB-231 [4] = assay: Antitumor activity against human MDA-MB-231 cells xenografted iv dosed athymic NCr-nu/nu mouse assessed as reduction in tumor size administered 3 times a week for 3 weeks; assay type: functional, organism-based
MDA-MB-231 [5] = assay: Inhibition of HuR-Msi2 mRNA binding in human MDA-MB-231 cells at 10 uM incubated for 6 hrs by RNP immunoprecipitation assay; assay type: cell-based
MDA-MB-231 [6] = assay: Inhibition of HuR-TGFB2 mRNA binding in human MDA-MB-231 cells assessed as half life of TGFB2 in presence of actinomycin D (reference value: 7.202 hrs); assay type: cell-based
MDA-MB-231 [7] = assay: Inhibition of HuR-XIAP mRNA binding in human MDA-MB-231 cells at 10 uM incubated for 6 hrs by RNP immunoprecipitation assay; assay type: cell-based
[8] = target: ELAV-like protein 1 (Homo sapiens) (UniProt Q15717); assay: Thermal stabilization of HuR in human MDA-MB-231 cells at 20 uM at 42 to 54 degreeC incubated for 1 hr by western blot based cellular thermal shift assay; assay type: cell-based
ELAV-like protein 1 (Homo sapiens), sequence (Q15717 whole entry): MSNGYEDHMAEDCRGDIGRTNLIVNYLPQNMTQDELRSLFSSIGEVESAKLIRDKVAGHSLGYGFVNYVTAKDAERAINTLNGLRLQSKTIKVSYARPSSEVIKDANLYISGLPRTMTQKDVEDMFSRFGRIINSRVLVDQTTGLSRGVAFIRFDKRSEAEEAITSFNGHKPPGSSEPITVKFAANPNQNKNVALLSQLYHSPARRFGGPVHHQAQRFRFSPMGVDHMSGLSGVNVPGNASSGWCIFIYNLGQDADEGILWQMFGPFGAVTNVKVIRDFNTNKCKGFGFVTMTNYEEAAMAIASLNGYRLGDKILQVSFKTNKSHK

MDA-MB-231 [9] = assay: Inhibition of cell invasion of human MDA-MB-231 cells at 10 uM incubated for 24 hrs by crystal violet staining based analysis; assay type: functional
MDA-MB-231 [10] = assay: Inhibition of HuR-Bcl-2 mRNA binding in human MDA-MB-231 cells at 10 uM incubated for 6 hrs by RNP immunoprecipitation assay; assay type: cell-based
MDA-MB-231 [11] = assay: Inhibition of HuR-THBS1 mRNA binding in human MDA-MB-231 cells assessed as half life of THBS1 in presence of actinomycin D (reference value: 10.46 hrs); assay type: cell-based
MDA-MB-231 [12] = assay: Downregulation of Msi2 protein expression in human MDA-MB-231 cells incubated for 48 hrs by Western blotting analysis; assay type: functional, cell-based; conditions: dose 5-10 µM
MDA-MB-231 [13] = assay: Downregulation of XIAP protein expression in human MDA-MB-231 cells incubated for 48 hrs by Western blotting analysis; assay type: functional, cell-based; conditions: dose 5-10 µM
MDA-MB-231 [14] = assay: Inhibition of HuR-Bcl-2 mRNA binding in human MDA-MB-231 cells at 5 uM incubated for 6 hrs by RNP immunoprecipitation assay; assay type: cell-based
MDA-MB-231 [15] = assay: Cytotoxicity against HuR knockout 1 human MDA-MB-231 cells assessed as inhibition of cell growth by MTT assay (reference value: 1.491 uM); assay type: functional, cell-based
MDA-MB-231 [16] = assay: Downregulation of Bcl-2 protein expression in human MDA-MB-231 cells incubated for 48 hrs by Western blotting analysis; assay type: functional, cell-based; conditions: dose 5-10 µM
MDA-MB-231 [17] = assay: Inhibition of cell invasion of human MDA-MB-231 cells at 5 uM incubated for 24 hrs by crystal violet staining based analysis; assay type: functional
[18] = target: ELAV-like protein 1 (Homo sapiens) (UniProt Q15717); assay: Thermal stabilization of HuR in human MDA-MB-231 cells at 10 uM at 42 to 54 degreeC incubated for 1 hr by western blot based cellular thermal shift assay; assay type: cell-based
MDA-MB-231 [19] = assay: Inhibition of HuR-16-nt biotinylated ARE Msi1 mRNA binding in human MDA-MB-231 cells at 20 uM by Western blotting analysis based pull-down assay; assay type: cell-based
MDA-MB-231 [20] = assay: Cytotoxicity against HuR knockout 2 human MDA-MB-231 cells assessed as inhibition of cell growth by MTT assay (reference value: 1.491 uM); assay type: functional, cell-based
MDA-MB-231 [21] = assay: Inhibition of HuR-Msi2 mRNA binding in human MDA-MB-231 cells at 5 uM incubated for 6 hrs by RNP immunoprecipitation assay; assay type: cell-based
MDA-MB-231 [22] = assay: Downregulation of HuR protein expression in human MDA-MB-231 cells at 5 to 10 uM incubated for 48 hrs by Western blotting analysis; assay type: functional, cell-based; conditions: dose 5-10 µM
MDA-MB-231 [23] = assay: Inhibition of HuR-16-nt biotinylated ARE Msi1 mRNA binding in human MDA-MB-231 cells at 10 uM by Western blotting analysis based pull-down assay; assay type: cell-based
MDA-MB-231 [24] = assay: Inhibition of HuR-XIAP mRNA binding in human MDA-MB-231 cells at 5 uM incubated for 6 hrs by RNP immunoprecipitation assay; assay type: cell-based

Compound	Ki [2]	IC50 (MDA-MB-231 [1])	further results
CCOC(=O)/C=C/c1cc2cc(NC(=O)c3ccc(C(C)(C)C)cc3)ccc2[nH]1	> 20 µM	1.13 µM	–
CCOC(=O)c1cc2cc(NS(=O)(=O)c3ccc(C(C)(C)C)cc3)ccc2[nH]1	> 20 µM	31.8 µM	–
CC(C)(C)c1ccc(C(=O)Nc2ccc3sc(C(=O)NO)cc3c2)cc1	0.44 µM	3.71 µM	–
CC(C)(C)c1ccc(S(=O)(=O)Nc2ccc3sc(/C=C/C(=O)NO)cc3c2)cc1	–	–	IC50 [3]: 3.34 µM; Ki [3]: 0.783 µM
O=C(Nc1ccc2sc(C(=O)O)cc2c1)c1ccccn1	–	> 100 µM	–
CN(C)c1ccc(C(=O)Nc2ccc3[nH]c(/C=C/C(=O)O)cc3c2)cc1	7.76 µM	> 100 µM	–
COC(=O)c1cc2cc(NC(=O)c3ccccn3)ccc2s1	–	> 100 µM	–
CN(C)c1ccc(C(=O)Nc2ccc3[nH]c(C(=O)NO)cc3c2)cc1	–	11.3 µM	–
CN(C)c1ccc(C(=O)Nc2ccc3[nH]c(C(=O)O)cc3c2)cc1	–	99.8 µM	–
CN(C)c1ccc(C(=O)Nc2ccc3sc(C(=O)O)cc3c2)cc1	–	> 100 µM	–
CCOC(=O)/C=C/c1cc2cc(NC(=O)c3ccc(N(C)C)cc3)ccc2[nH]1	4.39 µM	76.3 µM	–
CC(=O)O[C@@]12CO[C@@H]1C[C@H](O)[C@@]1(C)C(=O)[C@H](O)C3=C(C)[C@@H](OC(=O)[C@H](O)[C@@H](NC(=O)OC(C)(C)C)c4ccccc4)C[C@@](O)([C@@H](OC(=O)c4ccccc4)[C@H]21)C3(C)C	–	–	Activity (MDA-MB-231 [4]): Active
O=C(Nc1ccc2[nH]c(C(=O)NO)cc2c1)c1ccccn1	–	75.3 µM	inhibition (MDA-MB-231 [5]): inactive; T1/2 (MDA-MB-231 [6]): 7.09 h; inhibition (MDA-MB-231 [7]): inactive; Activity [8]: inactive; inhibition (MDA-MB-231 [9]): inactive; inhibition (MDA-MB-231 [10]): inactive; T1/2 (MDA-MB-231 [11]): 9.03 h
COC(=O)c1cc2cc(NC(=O)c3ccc(N(C)C)cc3)ccc2s1	–	> 100 µM	–
CCOC(=O)c1cc2cc(NC(=O)c3ccc(C(C)(C)C)cc3)ccc2[nH]1	> 20 µM	25.1 µM	–
CC(C)(C)c1ccc(C(=O)Nc2ccc3sc(C(=O)O)cc3c2)cc1	5.08 µM	90.5 µM	–
O=C(Nc1ccc2sc(C(=O)NO)cc2c1)c1ccccn1	–	4.43 µM	–
CC(C)(C)c1ccc(S(=O)(=O)Nc2ccc3[nH]c(C(=O)O)cc3c2)cc1	6.17 µM	> 100 µM	–
CC(C)(C)c1ccc(C(=O)O)cc1	–	–	IC50 [2]: > 200 µM
O=C(Nc1ccc2[nH]c(C(=O)O)cc2c1)c1ccccn1	–	> 100 µM	–
CCOC(=O)c1cc2cc(NC(=O)c3ccccn3)ccc2[nH]1	–	> 100 µM	–
CN(C)c1ccc(C(=O)Nc2ccc3sc(C(=O)NO)cc3c2)cc1	–	1.31 µM	Activity (MDA-MB-231 [12]): Dose-Dependent Effect; Activity (MDA-MB-231 [13]): Dose-Dependent Effect; inhibition (MDA-MB-231 [14]): Active; IC50 (MDA-MB-231 [15]): 3.66 µM; Activity (MDA-MB-231 [16]): Dose-Dependent Effect; inhibition (MDA-MB-231 [17]): Active; Activity [18]: Active; inhibition (MDA-MB-231 [19]): inactive; IC50 (MDA-MB-231 [20]): 3.01 µM; inhibition (MDA-MB-231 [21]): Active; Activity (MDA-MB-231 [22]): inactive; inhibition (MDA-MB-231 [23]): Active; inhibition (MDA-MB-231 [24]): Active
CC(C)(C)c1ccc(C(=O)Nc2ccc3[nH]c(C(=O)O)cc3c2)cc1	–	> 100 µM	–
CCOC(=O)c1cc2cc(NC(=O)c3ccc(N(C)C)cc3)ccc2[nH]1	–	> 100 µM	–

Now from value to compound, other results behind:

Ki [2]	Compound	IC50 (MDA-MB-231 [1])	further results
0.69 µM	CN(C)c1ccc(C(=O)Nc2ccc3[nH]c(/C=C/C(=O)NO)cc3c2)cc1	8.91 µM	–
11.8 µM	CCOC(=O)CCc1cc2cc(NC(=O)c3ccc(C(C)(C)C)cc3)ccc2s1	6.52 µM	–
> 20 µM	COC(=O)c1cc2cc(NC(=O)c3ccc(C(C)(C)C)cc3)ccc2s1	5.28 µM	–
6.95 µM	O=C(O)c1cc2cc([N+](=O)[O-])ccc2[nH]1	–	IC50 [2]: 29.7 µM
3.24 µM	CC(C)(C)c1ccc(S(=O)(=O)Nc2ccc3sc(C(=O)NO)cc3c2)cc1	12.9 µM	–
0.34 µM	CC(C)(C)c1ccc(C(=O)Nc2ccc3[nH]c(/C=C/C(=O)NO)cc3c2)cc1	2.24 µM	–
3.35 µM	CC(C)(C)c1ccc(C(=O)Nc2ccc3[nH]c(/C=C/C(=O)O)cc3c2)cc1	> 100 µM	–
13.3 µM	CCOC(=O)/C=C/c1cc2cc(NC(=O)c3ccc(C(C)(C)C)cc3)ccc2s1	57.7 µM	–
15.4 µM	COC(=O)c1cc2cc(NS(=O)(=O)c3ccc(C(C)(C)C)cc3)ccc2s1	27.4 µM	–
1.75 µM	CC(C)(C)c1ccc(S(=O)(=O)Nc2ccc3[nH]c(C(=O)NO)cc3c2)cc1	32 µM	–
3.83 µM	CC(C)(C)c1ccc(C(=O)Nc2ccc3sc(CCC(=O)O)cc3c2)cc1	19.8 µM	–
2.42 µM	CC(C)(C)c1ccc(S(=O)(=O)Nc2ccc3sc(C(=O)O)cc3c2)cc1	> 100 µM	–
0.97 µM	CC(C)(C)c1ccc(C(=O)Nc2ccc3sc(/C=C/C(=O)O)cc3c2)cc1	72.1 µM	–
0.83 µM	CC(C)(C)c1ccc(C(=O)Nc2ccc3sc(CCC(=O)NO)cc3c2)cc1	3.49 µM	–
0.15 µM	CC(C)(C)c1ccc(C(=O)Nc2ccc3sc(/C=C/C(=O)NO)cc3c2)cc1	1.33 µM	IC50 [3]: 0.597 µM; Ki [3]: 0.139 µM
